This is an account of results in publication PMC6628362, “A New Strategy for Glioblastoma Treatment: In Vitro and In Vivo Preclinical Characterization of Si306, a Pyrazolo[3,4-d]Pyrimidine Dual Src/P-Glycoprotein Inhibitor” (Cancers, 2019).

Molecules are shown by their SMILES. Several values for one entry are separate records, joined by “and”; a condition that tells them apart may be missing. Equal values may be shown once. Marks after values point to notes of the source that are not given here. Where only a bound is given, the exact number is not on record here.

The subject of series [1] is U87. In words: MTT cell growth inhibition, U87. It is filed as cell-based, Human. The note with it: 72 h, n = 3. On the procedure:
(§1) Human GBM cell lines U87 and LN-229 were purchased from the American Type Culture Collection, Rockville, MD, USA. U87-TxR cells were selected from U87 cells by continuous exposure to increasing concentrations of PTX [76]. LN-299, U87 and U87-TxR cells were grown in Minimum Essential Medium with 10% fetal bovine serum, 2 mM L-glutamine and 5000 U/mL penicillin, 5 mg/mL streptomycin solution. Cell lines were maintained at 37 °C in a humidified 5% CO2 atmosphere. They were sub-cultured at 72 h intervals using 0.25% trypsin/EDTA and 16,000 cells/cm^2 were seeded into a fresh medium.
(§2) MTT assay was used to assess the viability of U87 and U87-TxR cells (AppliChem GmbH, Taufkirchen, Germany). After reaching the confluence in 25 cm^2 tissue flasks, U87 and U87-TxR cells were trypsinized. Cells were seeded at the optimal density determined in initial experiments: 4000 cell/well into flat-bottomed 96-well tissue culture plates. Following the overnight incubation, cells were treated with Si306, pro-Si306 and dasatinib (1–25 µM) for 72 h. In addition, the combined effects of Si306 and pro-Si306 with PTX were evaluated in MDR GBM cells. To that end, two concentrations of Si306 and pro-Si306 (0.2 μM and 0.5 μM) were combined with increasing concentrations of PTX (0.1–2 μM) in simultaneous treatment. The sensitization of U87-TxR cells to PTX was studied after 72 h. Briefly, MTT was added to each well in a final concentration of 0.2 mg/mL for 4 h to induce the formation of the formazan in cells with intact/viable mitochondria. Then, produced formazan was dissolved in DMSO, and the absorbance was measured at 540 nm on a microplate reader (LKB 5060-006 Micro Plate Reader, Vienna, Austria). IC50 values were calculated by nonlinear regression analysis using GraphPad Prism 6.0 for Windows (GraphPad Software, La Jolla, CA, USA).

Series [2] relates to U87-TxR. Description: MTT cell growth inhibition, MDR U87-TxR. The note with it: 72 h, n = 3. It is filed as cell-based, Human. Here is the method:
as §1, §2

The test system of series [3] is LN-229. In words: MTT cell growth inhibition, LN-229. It is filed as cell-based, Human. The note with it: LN-229, MTT, n = 3.
Series [4] deals with P-gp. In words: Flow-cytometric analysis of P-glycoprotein expression in U87-TxR cells. In kind it is cell-based, Human. The note with it: 5 µM, 72 h, flow cytometry. Here is the method:
To assess the P-glycoprotein expression level in MDR GBM cells, flow-cytometry was employed. U87-TxR cells seeded in adherent 6-well plates were treated with 5 µM Si306, pro-Si306 or dasatinib for 72 h. Then, cells were collected by trypsinization, washed in PBS, and then directly immuno-stained by FITC-conjugated anti-P-gp antibody (BD Biosciences, Winnersh, Berkshire, UK). To discriminate the level of background fluorescence, an isotype control IgG2bκ (Abcam, Cambridge, United Kingdom) was used. The fluorescence of FITC-conjugated anti-P-gp was analyzed on assessed on the fluorescence channel 1 (FL1) of the CyFlow Space Partec flow-cytometer (Sysmex Partec GmbH, Görlitz, Germany). After gating to exclude the cell debris and dead cells, a minimum of 10,000 cells per sample was assayed. Summit Dako Software was used for the analyses of results obtained by flow-cytometry.

Series [5] deals with MCF-7/Adr. More on the design: method as in PMID 25482933. The note with it: read-out: IC50 cell growth; cited from earlier work.
In series [6] the test system is MCF-7/Adr. Further details: method as in PMID 25482933. As to conditions: 0.5 μM dasatinib, 72 h; cited from earlier work.
On the set-up of series [7]: method as in PMID 17429625. As to conditions: mice; cited from earlier work.
The target of series [8] is P-gp (Homo sapiens, UniProt P08183). Description: Rho 123 accumulation assay (P-gp inhibition) in U87-TxR cells. The note with it: 30 min; for P-gp activity (Rho 123 intracellular accumulation): 5 µM; for IC50: IC50 of P-gp inhibition, Rho 123 accumulation.
P-gp (Homo sapiens, UniProt P08183), sequence (P08183 whole entry): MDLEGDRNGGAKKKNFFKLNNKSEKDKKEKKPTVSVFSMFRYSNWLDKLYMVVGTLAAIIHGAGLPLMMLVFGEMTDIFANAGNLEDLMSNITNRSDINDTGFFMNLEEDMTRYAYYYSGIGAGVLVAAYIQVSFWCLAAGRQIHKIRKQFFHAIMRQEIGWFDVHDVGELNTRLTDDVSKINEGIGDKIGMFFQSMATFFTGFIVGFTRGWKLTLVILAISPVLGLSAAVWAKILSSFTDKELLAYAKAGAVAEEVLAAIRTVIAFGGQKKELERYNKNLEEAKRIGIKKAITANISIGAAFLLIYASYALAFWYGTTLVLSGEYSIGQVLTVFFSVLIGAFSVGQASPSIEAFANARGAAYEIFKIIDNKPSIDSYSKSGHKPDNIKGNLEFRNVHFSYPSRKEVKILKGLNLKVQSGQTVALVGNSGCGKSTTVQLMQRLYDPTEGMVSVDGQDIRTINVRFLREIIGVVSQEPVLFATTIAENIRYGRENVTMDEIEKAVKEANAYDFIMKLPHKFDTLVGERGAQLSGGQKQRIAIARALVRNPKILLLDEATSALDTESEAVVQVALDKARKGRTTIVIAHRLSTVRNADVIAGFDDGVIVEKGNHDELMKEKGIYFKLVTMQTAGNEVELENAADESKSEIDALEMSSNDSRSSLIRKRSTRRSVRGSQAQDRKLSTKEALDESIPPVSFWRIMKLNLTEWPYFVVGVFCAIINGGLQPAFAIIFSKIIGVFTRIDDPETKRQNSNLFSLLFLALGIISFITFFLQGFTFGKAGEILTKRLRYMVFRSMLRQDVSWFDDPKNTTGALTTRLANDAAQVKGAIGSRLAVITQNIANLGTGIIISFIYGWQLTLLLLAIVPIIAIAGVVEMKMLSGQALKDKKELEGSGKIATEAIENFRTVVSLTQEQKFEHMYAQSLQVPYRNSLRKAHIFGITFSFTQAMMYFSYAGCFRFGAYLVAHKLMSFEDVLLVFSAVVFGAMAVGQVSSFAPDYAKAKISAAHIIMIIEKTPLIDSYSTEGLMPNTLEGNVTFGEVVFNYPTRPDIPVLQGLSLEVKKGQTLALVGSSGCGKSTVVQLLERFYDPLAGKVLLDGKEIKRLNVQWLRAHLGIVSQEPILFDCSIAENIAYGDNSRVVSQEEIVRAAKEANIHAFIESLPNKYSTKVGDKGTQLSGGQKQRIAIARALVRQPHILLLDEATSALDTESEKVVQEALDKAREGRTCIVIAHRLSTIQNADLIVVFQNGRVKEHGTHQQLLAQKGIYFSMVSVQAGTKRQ
Description: At the end of the accumulation period, the cells were pelleted by centrifugation, washed with PBS and placed in cold PBS. The samples were kept on ice in a dark setting until the analysis on CyFlow Space Partec flow-cytometer (Sysmex Partec GmbH, Germany). […] A minimum of 10,000 events was assayed for each sample and the obtained results were analyzed using Summit Dako Software (ver. 4.3, Fort Collins, CO, USA).
The test system of series [9] is U87-TxR cells. Description: Reversal of paclitaxel resistance, MTT combination treatment. As to conditions: 72 h. It is filed as cell-based, Human. On the procedure:
as §2

The subject of series [10] is BT-138. In words: Cell viability, BT-138 (Table S1). It is filed as cell-based. As to conditions: BT-138, 24 h. On the procedure:
1. Cell Growth Inhibition by Dasatinib, Si306 and Pro-Si306
GB cell lines BT138, T98G and A172 were treated with Si306 and pro-Si306 at concentrations ranging from 1 to 100 µM, or with DMSO as a control. Cell viability was evaluated 72 h after treatment for T98G and A172 cell lines and after 24 h for BT-138. In table S1 the IC50 values are reported.
Table S1. Sensitivity of glioblastoma multiforme (GBM) cells to Si306 and pro-Si306 expressed as IC50 […]
Figure S1. Rho 123 accumulation in U87-TxR cells treated with increasing concentrations of TQ (A), Dex-VER (B), Si306 (C) and pro-Si306 (D).
(1 picture or pasted object on this page, not shown here)

For series [11], the target named is T1, CYP3A4 (Homo sapiens, UniProt P08684).
T1 construct: Incubations were carried out in a mix containing human liver microsomes (1 mg/mL of protein); from tissue; host or cells: human liver microsomes
T1 sequence (P08684 whole entry): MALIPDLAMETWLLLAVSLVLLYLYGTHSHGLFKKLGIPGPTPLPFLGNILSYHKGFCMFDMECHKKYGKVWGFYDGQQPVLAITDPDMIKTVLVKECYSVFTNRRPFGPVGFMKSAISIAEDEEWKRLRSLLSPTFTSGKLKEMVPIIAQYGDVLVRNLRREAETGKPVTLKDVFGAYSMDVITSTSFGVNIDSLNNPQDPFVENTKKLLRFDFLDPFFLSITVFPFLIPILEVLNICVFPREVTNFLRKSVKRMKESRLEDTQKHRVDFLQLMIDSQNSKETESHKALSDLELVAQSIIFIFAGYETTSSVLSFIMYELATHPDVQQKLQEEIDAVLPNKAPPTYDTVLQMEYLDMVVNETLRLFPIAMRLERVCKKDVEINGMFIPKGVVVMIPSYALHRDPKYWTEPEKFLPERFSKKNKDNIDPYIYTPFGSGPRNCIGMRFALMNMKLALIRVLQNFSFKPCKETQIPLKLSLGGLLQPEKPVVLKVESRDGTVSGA
Description: CYP3A4 inhibition in human liver microsomes (testosterone 6β-hydroxylation). In kind it is in vitro ADME. On the procedure: The inhibition of cytochrome P450 3A4 isoform by Si306 and pro-Si306 was measured by determining its activity on the substrate testosterone.
The activity of CYP3A4 was evaluated by measuring the 6β-hydroxylated testosterone formation (CYP3A4-specific reaction). The amount of 6β-hydroxylated metabolite was assessed in the absence and presence of Si306, pro-Si306 and ketoconazole (testosterone concentration of 100 μM in phosphate buffer 0.025 M, pH 7.4). […] Ketoconazole was used as standard selective inhibitor of CYP3A4 isoenzyme. Incubations were carried out in a mix containing human liver microsomes (1 mg/mL of protein) in phosphate buffer 0.025 M, pH 7.4, NADPH (200 μM) previously solubilized in a MgCl2 48 mM solution. The final incubation volume was 0.25 mL. After a 40 min-incubation period at 37 °C, the reaction was stopped by adding 1 mL of acetonitrile in the presence of corticosterone 2 μM as internal standard. The samples were centrifuged for 20 min at 5000 rpm. Concentrations of testosterone and its metabolite 6β-hydroxytestosterone were assessed by the HPLC method with UV detection. Calibration curve for quantitative analysis of 6β-hydroxytestosterone in the samples was obtained using commercial 6β-hydroxytestosterone purchased from Sigma Aldrich. For the statistical analysis, GraphPad InStat 3.0 (GraphPad Software, San Diego, CA, USA) was used.

Series [12] deals with Human Serum Albumin (HSA) (Homo sapiens, UniProt P02768). Description: Binding fluorimetric assay, HSA. It is filed as in vitro ADME. The note with it: 10 µM HSA, fluorescence quenching. On the procedure: (§3) In order to determine the binding affinity for Si306 and pro-Si306 to HSA (human serum albumin) and AGP (alpha-1-acid glycoprotein), the protein fluorescence has been monitored by spectroscopy. The quantitative analysis was performed using black 96 multiwell plates: in each well, a fixed concentration of HSA or AGP (10 µM in phosphate buffer 1 mM) was added with different amounts of the tested compound (0.1 µM to 500 µM). Plates were gently shacked and after 30 min at room temperature for equilibration, spectra were recorded from 300 to 400 nm, after excitation at 295 nm, by using a Perkin Elmer EnVision Multilabel Reader 2014 spectrofluorimeter. Finally, spectra were acquired with EnVision Manager ver.1.13 software (Walthman, MA, USA). The obtained non fluorescence quenching percentages were plotted against drug concentrations and the relative KD values were calculated using GraphPad software (version 6.0).
Human Serum Albumin (HSA), sequence (P02768 25-609): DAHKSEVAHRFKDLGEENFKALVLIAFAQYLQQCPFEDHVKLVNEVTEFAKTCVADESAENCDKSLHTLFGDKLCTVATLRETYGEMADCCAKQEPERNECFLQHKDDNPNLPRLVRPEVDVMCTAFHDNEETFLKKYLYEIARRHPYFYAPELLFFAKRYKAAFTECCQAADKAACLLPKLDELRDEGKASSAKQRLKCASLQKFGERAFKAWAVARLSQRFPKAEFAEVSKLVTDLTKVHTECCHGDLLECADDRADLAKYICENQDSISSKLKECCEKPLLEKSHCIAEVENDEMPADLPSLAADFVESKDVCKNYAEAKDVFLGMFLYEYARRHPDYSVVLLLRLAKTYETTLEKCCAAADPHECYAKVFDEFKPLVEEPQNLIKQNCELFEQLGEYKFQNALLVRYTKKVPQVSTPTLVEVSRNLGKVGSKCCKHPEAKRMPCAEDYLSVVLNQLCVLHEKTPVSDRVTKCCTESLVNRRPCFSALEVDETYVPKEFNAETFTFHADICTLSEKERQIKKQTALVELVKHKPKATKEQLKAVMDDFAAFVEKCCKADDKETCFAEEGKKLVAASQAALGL

For series [13], the system named is Alpha-1-acid glycoprotein (AGP). In words: Binding fluorimetric assay, AGP. It is filed as in vitro ADME. The note with it: 10 µM AGP, fluorescence quenching. On the procedure:
as §3

Details of series [14]: method as in PMID 28650650. The note with it: cited from earlier work.
On the set-up of series [15]: method as in PMID 28650650. The note with it: pro-Si306 administrated p.o.; cited from earlier work.

Consider `Cc1nc(Nc2ncc(C(=O)Nc3c(C)cccc3Cl)s2)cc(N2CCN(CCO)CC2)n1` [Dasatinib, dasatinib, reference compound], for which the IC50 (commonly the concentration at which inhibition is half-maximal) in [1] turned out to be 6.14 ± 0.464 µM; in series [1] (Homo sapiens, U-87 MG), 6.1 µM; in series [2] it was 8.52 ± 0.691 µM; in [2] (Homo sapiens, U87-TxR), 8.5 µM; in series [3] (Homo sapiens, LN-229, 72 h) it was 24.7 µM; in series [3] (72 h) it was 24.7 ± 1.03 µM. Moreover, in series [5], the IC50 was 40 µM. In series [4], the P-gp expression entry is “increased P-gp expression”. The “reversal of doxorubicin resistance” value in series [6] is 3.35 fold. In series [7], the oral bioavailability was 14%. Further, the “P-gp activity (Rho 123 intracellular accumulation)” value in series [8] is listed as “did not show a similar activity”.
In the case of `CC(=O)O[C@H]1C(=O)[C@@]2(C)[C@H]([C@H](OC(=O)c3ccccc3)[C@]3(O)C[C@H](OC(=O)[C@H](O)[C@@H](NC(=O)c4ccccc4)c4ccccc4)C(C)=C1C3(C)C)[C@]1(OC(C)=O)CO[C@@H]1C[C@@H]2O` [PTX, paclitaxel, reference compound], the IC50 in [9] (Homo sapiens, PTX alone, read-out: IC50 ± S.D. for PXT) amounted to 2.84 ± 0.358 µM.
In series [8] (TQ values in nM (footnote a)), `COc1cc2c(cc1OC)CN(CCc1ccc(NC(=O)c3cc(OC)c(OC)cc3NC(=O)c3cnc4ccccc4c3)cc1)CC2` [TQ, tariquidar, reference compound] came in with a concentration for half-maximal inhibition (IC50) of under 1 nM.
On to `CN1CCN(CCOC(=O)N(c2cccc(Br)c2)c2nc(SCCN3CCOCC3)nc3c2cnn3CC(Cl)c2ccccc2)CC1` (stereo not shown) [pro-Si306], for which the 50% inhibitory concentration (IC50) was 3.04 ± 0.343 µM in series [1]; about 3 µM in series [1] (Homo sapiens, U-87 MG); 3.42 ± 0.359 µM in series [2] (Homo sapiens, U87-TxR); 3.07 ± 0.272 µM in [3] (Homo sapiens, LN-229, 72 h); 30.7 ± 4.75 µM in series [10]; 3800 nM and 3750 nM in series [8]. The “Relative Reversal of PTX resistance” value in series [9] (0.2 µM of the compound) is reported as 4.47 ***; in series [9] (0.5 µM of the compound), 7.98; in series [9] (0.5 µM of the compound, listed as Pro-Si306) it was 7.98 ***. Further, in series [11] (pH 7.4, probe testosterone 100 μM (6β-hydroxylation), at a lower concentration (1–50 μM range)), the inhibition (usually the drop in the measured response relative to a control, in per cent) at 40 min is -15%. In addition, the “interaction with CYP3A4” value in series [11] (up to 50 μM) is reported as “do not interact with CYP3A4”. Further, the BMAX was 78.00 ± 4.2 in series [12] and 96.69 ± 1.5 in [13]. For the same compound, in series [12], the Kd (usually the concentration at which binding is half-saturated) was found to be 21.4 ± 4.5 µM. Besides, the equilibrium dissociation constant (Kd) at 30 min in [13] (alpha-1-acid glycoprotein (10 µM) in phosphate buffer) came out at 9.28 ± 0.7 µM. Further, the solubility result in series [14] is “enhanced solubility”. For the same compound, in series [15], the “detection in plasma and brain” value is “detected neither into the plasma nor in the brain”. For the same compound, the “P-gp activity (Rho 123 intracellular accumulation)” value in series [8] is “significant suppression of P-gp activity”.
